Reference: publication PMC4885489, “Prediction of Drug-Drug Interactions Arising from CYP3A induction Using a Physiologically Based Dynamic Model” (Drug Metabolism and Disposition, 2016)
Like-named read-outs stand apart in the source and are kept apart here.

Key:
[1] = cited from earlier work
[2] = cited from earlier work; remark: listed apart in the source
[3] = human, in vivo
CYP3A [4] = settings: mean of four human hepatocyte donors; three-parameter fit; Indmax = Emax + 1
[5] = cited from earlier work; remark: listed apart in the source
CYP3A [6] = settings: mean of four human hepatocyte donors; three-parameter fit; Indmax = Emax + 1; remark: listed apart in the source
rCYP2C9 [7] = settings: read-out: rCYP2C9 Km; ref (Rowland et al., 2008); cited from earlier work
in vitro = settings: human, human liver microsomes
CYP3A [8] = experiment: in vitro; settings: human, cryopreserved human hepatocytes, probe testosterone (6β-hydroxytestosterone formation)
[9] = ref (Kurata and Wilkinson, 1974); cited from earlier work
CYP3A [10] = experiment: in vitro; settings: human, cryopreserved human hepatocytes
CYP2C9 = tested on: CYP2C9; parameters: method as in ref (Sahi et al., 2009); settings: ref (Sahi et al., 2009), cited from earlier work
[11] = ref Meta-analysis (Odar-Cederlof and Borga, 1974); (Tassaneeyakul et al., 1992); (Ducharme et al., 1995) and 3 others; cited from earlier work
rCYP2C19 [12] = settings: read-out: rCYP2C19 Km; ref (Giancarlo et al., 2001); (Bajpai et al., 1996); cited from earlier work
rCYP2C9 [13] = experiment: Recombinant enzyme metabolism kinetics, rCYP2C9; settings: Calculated from CLiv using retrograde model
rCYP2C19 [14] = experiment: Recombinant enzyme metabolism kinetics, rCYP2C19; settings: Calculated from CLiv using retrograde model
[15] = Monoprotic Acid; ref Meta-analysis (Pade and Stavchansky, 1998); (Avdeef et al., 2000); (Taillardat-Bertschinger et al., 2002); (Loeuillet-Ritzler and Faller, 2004); cited from earlier work
CYP2B6 = tested on: CYP2B6; parameters: method as in ref (Hariparsad et al., 2008); settings: ref (Hariparsad et al., 2008), cited from earlier work

In the case of CCC1(c2ccccc2)C(=O)NC(=O)NC1=O [Phenobarbital, phenobarbital], the CLR ([1]; in vivo) is given as 0.07 L/h, the fe ([1]; in vivo) is given as 0.24 and the fa ([2]; ref (Varma et al., 2012)) is given as 1. For the same molecule, the ka [3] was 2 h⁻¹, the “Activity Indmax” value (CYP3A [4]) was 21.1 fold and the “Vss (Minimal PBPK)” value ([5]; in vivo) was 0.54 L/kg. The “mRNA Indmax” value (CYP3A [6]) was 44.2 fold.

In the case of O=C1NC(=O)C(c2ccccc2)(c2ccccc2)N1 [Phenytoin, phenytoin], the Km (rCYP2C9 [7]) is given as 4.1 µM, the CLR ([1]; from fe 0.008, ref (Kozelka and Hine, 1943), (Borga et al., 1979)) is given as 0.015 L/h and the fe ([1]; ref (Kozelka and Hine, 1943), (Borga et al., 1979)) is given as 0.008. For the same molecule, the CLiv ([1]; ref Meta-analysis (Gugler et al., 1976), (Glazko et al., 1969), (Lund et al., 1974), (Perucca et al., 1978)) was 1.88 L/h, the microsomal CLint (in vitro) was 0.97 µL/min/mg and the EC50 (CYP3A [8]) was 51.3 µM. For the same molecule, the fa ([2]; ref (Bochner et al., 1973)) was 0.9, the ka ([2]; ref (Tassaneeyakul et al., 1992)) was 0.53 h⁻¹ and the “B:P” value [9] was 0.61. For the same molecule, the EC50 (CYP3A [10]) was 123 µM, the “CYP2C9 Indmax (Fold, Emax +1)” value (CYP2C9) was 10.7 Fold and the EC50 (CYP2C9; read-out: CYP2C9 IndC50) was 9.8 µM. For the same molecule, the fu [11] was 0.10, the Km (rCYP2C19 [12]) was 36.8 µM and the “rCYP2C9 Vmax” value (rCYP2C9 [13]) was 0.24 pmol/min/pmol. For the same molecule, the “Activity Indmax” value (CYP3A [4]) was 13.6 fold, the “Vss (Minimal PBPK)” value ([5]; ref Meta-analysis (Gugler et al., 1976), (Odar-Cederlof and Borga, 1974), (Glazko et al., 1969), (Lund et al., 1974), (Perucca et al., 1978)) was 0.57 L/kg and the “rCYP2C19 Vmax” value (rCYP2C19 [14]) was 1.53 pmol/min/pmol. The “pKa(s)” value [15] was 8.15, the “mRNA Indmax” value (CYP3A [6]) was 24.5 fold and the “CYP2B6 Indmax (Fold, Emax +1)” value (CYP2B6) was 1.9 Fold. For the same molecule, the EC50 (CYP2B6; read-out: CYP2B6 IndC50) was 15.3 µM.
